Values quoted from earlier work as cited in patent US6962905B1, “Pharmaceutical formulation comprising a low molecular weight thrombin inhibitor and its prodrug” (AstraZeneca AB, priority 1999, dated 2005).

test system: DVT after total hip/knee replacement or major surgery; details: background statements from literature

Question: Which “effect on incidence of DVT after surgery” value does the source give for `CC(=O)Oc1ccccc1C(=O)O` [aspirin] here?
Answer: The value was “limited efficacy”.

Question: For `CC(=O)CC(c1ccccc1)c1c(O)c2ccccc2oc1=O` (stereo not drawn) [warfarin], which “effect on incidence of DVT after surgery” value is on record?
Answer: Its value is “effective in reducing DVT”.

Question: For hirudin, which “effect on incidence of DVT after surgery” value is on record?
Answer: The value was “superior to unfractionated heparin and LMWH”.
